PMC5355811 (Nature Communications, 2017)
Like-named read-outs stand apart in the source and are kept apart here.

Assays:
Type in all cases: cell-based
[1] = system: Ba/F3 cells expressing EGFR-del19; experiment: CellTiter-Glo cell viability assay, Ba/F3 EGFR-del19; conditions: Mus musculus, BaF3, 72 h, read-out: IC50, Ba/F3 del19
Protocol: Three-day cell viability assays were carried out by plating 2,000, 1,500 and 2,000 cells per well of Ba/F3, PC9 or MGH121, respectively, into black transparent-bottom 96-well plates. On the same day for Ba/F3 cells and the following day for PC9 and MGH121 cells, the cells were treated with each TKI across a 10-dose range from 0.3 nmol l^−1 to 10 μmol l^−1. After 72 h of drug treatment, cell viability was measured using the CellTiter-Glo assay (Promega).

[2] = system: Ba/F3 cells of EGFR-del19; experiment: Drug sensitivity screening at 100 nM, Ba/F3 EGFR-del19; conditions: for viability at 0.1 µM: Mus musculus, BaF3, 72 h, read-out: Relative cell viability (ratio to DMSO control), del19; for Relative cell viability (% of DMSO control) in del19 Ba/F3 cells: 100 nM
Protocol: (§1) After the incubation, cell viability was measured using CellTiter-Glo assay. The relative cell viability was calculated as a ratio of each value to that of the DMSO control.

[3] = system: Ba/F3 cells of EGFR-T790M/del19; experiment: Drug sensitivity screening at 100 nM, Ba/F3 EGFR-T790M/del19; conditions: for viability at 0.1 µM: Mus musculus, BaF3, 72 h, read-out: Relative cell viability (ratio to DMSO control), del19/T790M; for Relative cell viability (% of DMSO control): 100 nM
Protocol: as §1

[4] = system: Ba/F3 cells of EGFR-C797S/T790M/del19; experiment: Drug sensitivity screening at 100 nM, Ba/F3 EGFR-C797S/T790M/del19; conditions: Mus musculus; for viability at 0.1 µM: BaF3, 72 h, 100 nM inhibitor, 72 h, DMSO = 100, mean of three independent experiments (Fig. 1a data)
Protocol: as §1

[5] = system: phosphorylation of EGFR in Ba/F3 cells expressing EGFR-C797S/T790M/del19; experiment: Western blotting of EGFR signalling, Ba/F3 triple-del19; conditions: 6 h
Protocol: Tumour tissues or cells grown under the specified conditions were washed with cold PBS before addition of the SDS lysis buffer (100 mM Tris, 1% SDS, 10% glycerol). Lysates were transferred to microtubes, boiled for 5 min at 100 °C and then vortexed. Protein quantification was performed using the BCA Protein Assay Reagent (Pierce) according to the manufacturer's protocol. Western blot analyses were conducted after separation by SDS-PAGE and transferred to polyvinylidene difluoride membranes.

[6] = 100 nM inhibitor, 72 h, DMSO = 100, mean of three independent experiments (Fig. 1a data)

Compound | IC50 [1] [nM] | viability at 0.1 µM [2] [%] | viability at 0.1 µM [3] [%] | inhibition at 0.1 µM ([4]; BaF3, read-out: growth inhibition against EGFR-triple-del19) [%] | phosphorylation of EGFR and downstream signalling, Ba/F3 triple-del19 [5] | Relative cell viability (% of DMSO control) in del19 Ba/F3 cells ([2]; 72 h, DMSO = 100, experiment 1) | Relative cell viability (% of DMSO control) in del19 Ba/F3 cells ([2]; 72 h, DMSO = 100, experiment 2) | Relative cell viability (% of DMSO control) in del19 Ba/F3 cells ([2]; 72 h, DMSO = 100, experiment 3) | viability at 0.1 µM [2, 6] [%] | Relative cell viability (% of DMSO control) ([3]; 72 h, DMSO = 100, experiment 1) | Relative cell viability (% of DMSO control) ([3]; 72 h, DMSO = 100, experiment 2) | Relative cell viability (% of DMSO control) ([3]; 72 h, DMSO = 100, experiment 3) | viability at 0.1 µM [3, 6] [%] | viability at 0.1 µM [4] [%]
Cc1ccc(C(=O)Nc2ccc(CN3CCN(C)CC3)c(C(F)(F)F)c2)cc1C#Cc1cnc2cccnn12 [Ponatinib, ponatinib] | 126 | 40.6 | 53.5 | ~50 | no inhibitory activity |  |  |  |  |  |  |  |  | 
COc1cc2c(Nc3ccc(Br)cc3F)ncnc2cc1OCC1CCN(C)CC1 [Vandetanib, vandetanib] |  |  |  |  |  | 1.287 | 1.585 | 1.984 | 1.62 | 95.2444 | 114.653 | 98.1331 | 103 | 130
C[C@H]1Oc2cc(cnc2N)-c2c(nn(C)c2C#N)CN(C)C(=O)c2ccc(F)cc21 [Lorlatinib, lorlatinib] |  |  |  |  |  | 99.5381 | 109.489 | 108.837 | 106 | 93.1744 | 112.187 | 104.505 | 103 | 126
CC(=O)O[C@H]1C(=O)[C@@]2(C)[C@H]([C@H](OC(=O)c3ccccc3)[C@]3(O)C[C@H](OC(=O)[C@H](O)[C@@H](NC(=O)c4ccccc4)c4ccccc4)C(C)=C1C3(C)C)[C@]1(OC(C)=O)CO[C@@H]1C[C@@H]2O [paclitaxel] |  |  |  |  |  | 51.8383 | 52.2569 | 51.6533 | 51.9 | 72.6289 | 87.6485 | 88.6746 | 83 | 95.1
CCc1cc2c(cc1N1CCC(N3CCOCC3)CC1)C(C)(C)c1[nH]c3cc(C#N)ccc3c1C2=O [Alectinib, alectinib] |  |  |  |  |  | 98.9355 | 105.786 | 113.209 | 106 | 98.2015 | 127.038 | 121.189 | 115 | 146
Cn1cnc2c(F)c(Nc3ccc(Br)cc3Cl)c(C(=O)NOCCO)cc21 [AZD6244] |  |  |  |  |  | 44.8792 | 57.317 | 50.3776 | 50.9 | 105.003 | 111.809 | 110.93 | 109 | 134
